Several values for one entry are separate records, joined by “and”; a condition that tells them apart may be missing. Identical values can stand only once. Numbered stars: 1 amine (or outer) side, 2 acyl side, 3 side chain; on linkers, the order of the positions; unused ones are H or OH. Bridge positions count the residues as written; N and C are the ends. Square brackets hold non-standard residues; d marks the D form. Peptide text beside a SMILES is read from it. I, II: the chains in the order shown. Actinocin(1to9) = Cc1c2oc3c(C)ccc(C(=O)[*:2])c3nc-2c(C(=O)[*:1])c(N)c1=O; NMeV = CN[C@H](C(=O)O)C(C)C; Sar = CNCC(=O)O
Assays:
[1] = (§1) Cytotoxicity against human Hep G2 cells; assay type: functional, HepG2
[2] = Cytotoxicity against human HM02 cells; assay type: functional
[3] = as §1; assay type: functional; details: HepG2
[4] = tested on: Bacillus subtilis; test: Antimicrobial activity against Bacillus subtilis at 50 ug after 24 hrs by disk diffusion method; assay type: functional; details: read-out: IZ
[5] = tested on: Escherichia coli; test: Antimicrobial activity against Escherichia coli at 50 ug after 24 hrs by disk diffusion method; assay type: functional; details: read-out: IZ
[6] = tested on: Staphylococcus aureus; test: Antimicrobial activity against Staphylococcus aureus at 50 ug after 24 hrs by disk diffusion method; assay type: functional; details: read-out: IZ

Row | SMILES | GI50 ([1]; Homo sapiens, HepG2) | TGI ([1]; Homo sapiens, HepG2) | GI50 ([2]; Homo sapiens, HM02) | TGI ([2]; Homo sapiens, HM02) | GI50 [3] | TGI [3] | zone of inhibition at 50 µg/disc [4] | zone of inhibition at 50 µg/disc [5] | zone of inhibition at 50 µg/disc [6] | TGI [1] | TGI [2]
1 | Nc1cc2nc3ccccc3oc-2cc1=O | 6600 nM | 26000 nM | 4450 nM | 10000 nM | 610 nM | 2000 nM |  |  |  |  | 
2 | Cc1c2oc3c(C)ccc(C(=O)N[C@@H]4C(=O)N[C@H](C(C)C)C(=O)N5[C@H](C(=O)N(C)CC(=O)N(C)[C@@H](C(C)C)C(=O)O[C@@H]4C)[C@@H](O)C[C@@H]5C)c3nc-2c(C(=O)N[C@@H]2C(=O)N[C@H](C(C)C)C(=O)N3CCC[C@H]3C(=O)N(C)CC(=O)N(C)[C@@H](C)C(=O)O[C@@H]2CCl)c(N)c1=O [ACTINOMYCIN G2] | 2.9 nM | 18 nM | 1.3 nM | 4.3 nM | 3.9 nM | 12 nM | 45 mm | 15 mm | 27 mm |  | 
3 | Cc1c2oc3c(C)ccc(C(=O)N[C@@H]4C(=O)N[C@H](C(C)C)C(=O)N5[C@H](C(=O)N(C)CC(=O)N(C)[C@@H](C(C)C)C(=O)O[C@@H]4C)[C@@H](O)C[C@@H]5C)c3nc-2c(C(=O)N[C@@H]2C(=O)N[C@H](C(C)C)C(=O)N3CCC[C@H]3C(=O)N(C)CC(=O)N(C)[C@@H](C)C(=O)O[C@@H]2CO)c(N)c1=O [ACTINOMYCIN G3] | 1100 nM | > 7900 nM | 130 nM | 550 nM | 460 nM | 1600 nM | 33 mm | 0 mm | 21 mm |  | 
4 | Cc1c2oc3c(C)ccc(C(=O)N[C@@H]4C(=O)N[C@H](C(C)C)C(=O)N5[C@H](C(=O)N(C)CC(=O)N(C)[C@@H](C(C)C)C(=O)O[C@@H]4C)[C@@H](O)C[C@@H]5C)c3nc-2c(C(=O)N[C@@H]2C(=O)N[C@H](C(C)C)C(=O)N3CCC[C@H]3C(=O)N(C)CC(=O)N(C)[C@@H](C)C(=O)O[C@@H]2C)c(N)c1=O [ACTINOMYCIN G4] | 640 nM | 1400 nM | 65 nM | 520 nM | 400 nM | 1500 nM |  |  |  |  | 
5 | Cc1c2oc3c(C)ccc(C(=O)N[C@@H]4C(=O)N[C@H](C(C)C)C(=O)N5[C@H](C(=O)N(C)CC(=O)N(C)[C@@H](C(C)C)C(=O)O[C@@H]4C)[C@@H](O)C[C@@H]5C)c3nc-2c2c(c1=O)OC[C@H]1OC(=O)[C@H](C)N(C)C(=O)CN(C)C(=O)[C@@H]3CCCN3C(=O)[C@@H](C(C)C)NC(=O)[C@H]1NC2=O [ACTINOMYCIN G5] | 2700 nM | 7800 nM | 2100 nM | 4400 nM | 1400 nM | 2500 nM | 20 mm | 0 mm | 10 mm |  | 
6 | Cc1c2oc3c(C)ccc(C(=O)N[C@@H]4C(=O)N[C@H](C(C)C)C(=O)N5[C@H](C(=O)N(C)CC(=O)N(C)[C@@H](C(C)C)C(=O)O[C@@H]4C)[C@@H](O)C[C@@H]5C)c3nc-2c(C(=O)OC[C@H](O)[C@@H]2NC(=O)[C@H](C)N(C)C(=O)CN(C)C(=O)[C@@H]3CCCN3C(=O)[C@@H](C(C)C)NC2=O)c(N)c1=O [ACTINOMYCIN G6] |  |  |  | 1000 nM | 1400 nM | 4600 nM | 0 mm | 0 mm | 0 mm | 1600 nM and > 7900 nM | 2000 nM
7 | Cc1c2oc3c(C)ccc(C(=O)N[C@@H]4C(=O)N[C@H](C(C)C)C(=O)N5CCC[C@H]5C(=O)N(C)CC(=O)N(C)[C@@H](C(C)C)C(=O)O[C@@H]4C)c3nc-2c(C(=O)N[C@@H]2C(=O)N[C@H](C(C)C)C(=O)N3CCC[C@H]3C(=O)N(C)CC(=O)N(C)[C@@H](C(C)C)C(=O)O[C@@H]2C)c(N)c1=O [DACTINOMYCIN] (I: T[dV]P[Sar][NMeV] / II: T[dV]P[Sar][NMeV]; ester I:1-I:C, II:1-II:C; linker I:N-II:N via Actinocin(1to9)) | 1.2 nM | 52 nM | 1.6 nM | 6.4 nM | 1.9 nM | 8.8 nM | 55 mm | 20 mm | 30 mm |  | 
